Laboratory results as given in patent US20220273568A1, “MULT[…] FORMULATIONS OF DEXMEDETOMIDINE” (Pacira Pharmaceuticals, Inc., priority 2019, published 2022).

Assays:
[1] = rat, in vivo, sc
Procedure: (§1) Pharmacokinetic studies of the subcutaneous dosing of the DXM PK studies discussed herein were performed in rats where bolus DXM was compared to various formulations of DXM-MVLs at doses between 0.21-0.42 mg/kg. Female Sprague Dawley rats supplied by Absorption Systems weighing about 310 g received subcutaneous injections of either a bolus of unencapsulate (free or unencapsulated) DXM dissolved in H3PO4 solution or one the of the DXM-MVL formulations suspended in saline or buffered saline (20 mM phosphate). Injections were made on the left lateral hind limb of each rat using 100 μL syringes fitted with 25G needles. Each treatment group contained 3 rats.
(§2) Plasma samples were collected at different times points (0.5, 1, 2, 6, 12, 24, 48, 72 & 96 hour post dose) for analysis. Blood samples were collected via the right saphenous vein using a 19 gauge needle prick or cardiac puncture for the final time point, placed into chilled tubes containing the appropriate anticoagulant, inverted several times to mix, protected from light, and kept on ice until centrifugation.

[2] = background statement; cited from earlier work
[3] = in vivo; conditions: female, Sprague Dawley, rat, sc
Procedure: as §1, §2

## Cc1cccc([C@H](C)c2cnc[nH]2)c1C [Unencapsulated DXM solution, dexmedetomidine]
[1]; female, Sprague Dawley
  AUC/Dose: 383 pg·h/mL/mg/kg
[1]
  Cmax/Cavg: 2.3
  time at which plasma DXM levels peaked: within an hour
[2]
  t1/2: 2 h
[3]
  Tmax: 0.5 h
  half-life: 2 h
